28 molecules from patent publication US10894807B2 (Siemens Medical Solutions USA, Inc., priority 2011, dated 2021) can be followed below.

Some results are limits rather than exact numbers.

For orientation: Ki means the equilibrium dissociation constant of an inhibitor or competing ligand from its target. Higher therefore signals weaker binding.

For the assay, the target named is human PSMA (Homo sapiens (Human), UniProt Q04609). The assay can be described thus: Enzymatic assay for in vitro evaluation of PSMA inhibitors (fluorescent assay of PSMA activity, NAAG substrate, OPA detection of glutamate). In kind it is biochemical. As for the experimental part:
Enzymatic Assay for In Vitro Evaluation of PSMA Inhibitors
The inhibitory activity of all compounds was determined using a fluorescent assay of human PSMA activity. The enzyme used in the assay was purchased from R&D Systems and stored at −80° C. The PSMA activity was assayed in a two-step process. In the first step, aliquots of enzyme (0.2 μg/mL) were incubated for 1 h at 37° C. in 50 mM HEPES, 0.1 M NaCl, pH 7.5, in the presence of 20 μM NAAG and the given inhibitor, in a volume of 250 μL, to allow for the accumulation of glutamate produced in the PSMA reaction. In the second step, the amount of accumulated glutamate was measured using the OPA reaction, and the fluorescence was read with a SpectraMax fluorescent plate reader using excitation at 330 nm and emission at 450 nm. The final Ki values for each inhibitor were calculated from the respective IC50 values using the Cheng and Prusoff equation.

Chain of human PSMA (Q04609 whole entry): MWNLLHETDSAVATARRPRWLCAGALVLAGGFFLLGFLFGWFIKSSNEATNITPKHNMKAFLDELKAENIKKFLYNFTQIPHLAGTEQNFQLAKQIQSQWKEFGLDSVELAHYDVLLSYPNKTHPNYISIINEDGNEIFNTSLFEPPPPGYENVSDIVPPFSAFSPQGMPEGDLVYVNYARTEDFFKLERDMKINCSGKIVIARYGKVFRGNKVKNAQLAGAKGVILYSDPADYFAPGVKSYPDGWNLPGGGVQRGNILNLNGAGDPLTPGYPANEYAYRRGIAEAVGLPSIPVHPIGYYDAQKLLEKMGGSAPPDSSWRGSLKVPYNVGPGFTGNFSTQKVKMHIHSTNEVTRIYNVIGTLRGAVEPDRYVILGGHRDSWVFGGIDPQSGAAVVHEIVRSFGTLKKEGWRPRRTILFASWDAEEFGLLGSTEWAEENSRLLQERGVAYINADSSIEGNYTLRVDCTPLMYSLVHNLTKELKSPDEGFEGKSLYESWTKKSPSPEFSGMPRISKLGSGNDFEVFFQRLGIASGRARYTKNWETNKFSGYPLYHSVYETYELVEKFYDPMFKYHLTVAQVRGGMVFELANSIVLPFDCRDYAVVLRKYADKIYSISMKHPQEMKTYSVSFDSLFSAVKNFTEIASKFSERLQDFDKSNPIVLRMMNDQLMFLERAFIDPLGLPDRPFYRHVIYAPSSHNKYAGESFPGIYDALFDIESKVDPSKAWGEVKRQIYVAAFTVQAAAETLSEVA

In the case of `O=C(O)CC[C@H](NC(=O)NNC(=O)CCCc1ccc(-n2cc(CCCF)nn2)cc1)C(=O)O` [P100, (S)-2-(2-(4-(4-(4-(3-Fluoropropyl)-1H-1,2,3-triazol-1-yl)phenyl)butanoyl)-hydrazinecarboxamido)pentanedioic Acid], the “PSMA Blkg % (10 μM)” value (compound at 10 μM) stood at 3%.
The same measure, in the same setting: for `O=C(O)CC[C@H](NC(=O)NCC(=O)O)C(=O)O` [P022, (S)-2-(3-(Carboxymethyl)ureido)pentanedioic Acid] the value was 77%.
In the case of `O=C(O)CC[C@H](NC(=O)N[C@@H](CCCCNC(=O)N1CCN(C(=O)c2cc(C(=O)N3CCN(C(=O)NCCCC[C@@H](NC(=O)N[C@H](CCC(=O)O)C(=O)O)C(=O)O)CC3)cc(-n3cc(CCCF)nn3)c2)CC1)C(=O)O)C(=O)O` [P263, (2S,2′S)-2,2′-(((((1S,1′S)-((4,4′-(5-(4-(3-Fluoropropyl)-1H-1,2,3-triazol-1-yl)-isophthaloyl)bis(piperazine-1,1′-carbonyl))bis(azanediyl))bis(1-carboxypentane-5,1-diyl))bis(azanediyl))bis(carbonyl))bis(azanediyl))dipentanedioic Acid], the Ki turned out to be 1.3 nM and the “PSMA Blkg % (1.0 μM)” value is on record as 98%.
Take `O=C(O)CC[C@H](NC(=O)CN(O)C(=O)CCCCNC(=O)c1ccccc1)C(=O)O` [P131, (S)-2-(2-(5-Benzamido-N-hydroxypentanamido)acetamido)pentanedioic Acid]: the “PSMA Blkg % (10 μM)” value (compound at 10 μM) was determined as 6%.
The same measure, in the same setting: the same measure for `CN(C(=O)N[C@@H](CCC(=O)O)C(=O)O)[C@@H](CCCCNC(=O)CCCCCn1cc(CCCF)nn1)C(=O)O` [P080, (S)-2-(3-((S)-1-Carboxy-5-(6-(4-(3-fluoropropyl)-1H-1,2,3-triazol-1-yl)-hexamido)pentyl)-3-methylureido)pentanedioic Acid]: 90%.
For the molecule `CC(C)(C)OC(=O)N1CCC[C@H]1COP(=O)(O)CC(CCC(=O)O)C(=O)O` (stereo partly drawn) [P201, 2-(((((S)-1-(tert-butoxycarbonyl)pyrrolidin-2-yl)methoxy)(hydroxy)phosphoryl)methyl)-pentanedioic Acid], the Ki was > 300 nM. For the setting “10 μM”, the “PSMA Blkg % (10 μM)” value was determined as 83%.
`O=C(O)CC[C@H](NC(=O)NC(Cc1ccc(NC(=O)N2CCN(C(=O)c3cc(NC(=O)Cn4cc(CCCF)nn4)cc(C(=O)N4CCN(C(=O)Nc5ccc(CC(NC(=O)N[C@@H](CCC(=O)O)C(=O)O)C(=O)O)cc5)CC4)c3)CC2)cc1)C(=O)O)C(=O)O` (stereo in doubt) [P274, (2S,2′S)-2,2′-(((((1S,1′S)-(((4,4′-(5-(2-(4-(3-Fluoropropyl)-1H-1,2,3-triazol-1-yl)acetamido)isophthaloyl)bis(piperazine-1,1′-carbonyl))bis(azanediyl))bis(4,1-phenylene))bis(1-carboxyethane-2,1-diyl))bis(azanediyl))bis(carbonyl))bis(azanediyl))dipentanedioic Acid] showed a Ki of 13.1 nM.
In the case of `Cc1ccc(-c2cn(CC(=O)N[C@@H](CC(=O)N[C@@H](CCC(=O)O)C(=O)O)C(=O)O)nn2)cc1` [P016, (S)-2-((S)-3-Carboxy-3-(2-(4-(p-tolyl)-1H-1,2,3-triazol-1-yl)acetamido)-propanamido)pentanedioic Acid], the “PSMA Blkg % (10 μM)” value (compound at 10 μM) was determined as 12%.
Consider `O=C(O)CC[C@H](NC(=O)N[C@@H](CC1CCN(C(=O)c2cc(C(=O)O)cc(-n3cc(CCCF)nn3)c2)CC1)C(=O)O)C(=O)O` [P284, (S)-2-(3-((S)-1-Carboxy-2-(1-(3-carboxy-5-(4-(3-fluoropropyl)-1H-1,2,3-triazol-1-yl)benzoyl)piperidin-4-yl)ethyl)ureido)pentanedioic Acid], for which the “PSMA Blkg % (1.0 μM)” value was 96%.
Consider `O=C(O)CC[C@H](NC(=O)N[C@@H](CCCCNC(=O)CCCn1cc(CCCF)nn1)C(=O)O)C(=O)O` [P045, (S)-2-(3-((S)-1-Carboxy-5-(4-(4-(3-fluoropropyl)-1H-1,2,3-triazol-1-yl)-butanamido)pentyl)ureido)pentanedioic Acid], for which the affinity, expressed as Ki, was 10.9 nM. The “PSMA Blkg % (10 μM)” value (compound at 10 μM) is given as 95%.
The molecule `O=C(O)CC[C@H](NC(=O)N[C@@H](CCCCNc1nc(-c2ccc(-n3cc(CCCF)nn3)cc2)cs1)C(=O)O)C(=O)O` [P218, (S)-2-(3-((S)-1-Carboxy-5-((4-(4-(4-(3-fluoropropyl)-1H-1,2,3-triazol-1-yl)phenyl)thiazol-2-yl)amino)pentyl)ureido)pentanedioic Acid] displayed a Ki of 0.6 nM. For the setting “10 μM”, the “PSMA Blkg % (10 μM)” value amounted to 98%.
In turn, `CN(C(=O)N[C@@H](CCC(=O)O)C(=O)O)[C@@H](CCCCNC(=O)c1ccc(-n2cc(CCCF)nn2)cc1)C(=O)O` [P053, (S)-2-(3-((S)-1-Carboxy-5-(4-(4-(3-fluoropropyl)-1H-1,2,3-triazol-1-yl)benzamido)pentyl)-3-methylureido)pentanedioic Acid] gave a Ki of 31.3 nM. Further, the “PSMA Blkg % (10 μM)” value (compound at 10 μM) was 94%.
In the case of `CC(=O)N(CCCCN1C(=O)c2ccccc2C1=O)NC(=O)N[C@@H](CCC(=O)O)C(=O)O` [P066, (S)-2-(2-Acetyl-2-(4-(1,3-dioxoisoindolin-2-yl)butyl)hydrazinecarboxamido)-pentanedioic Acid], the “PSMA Blkg % (10 μM)” value (compound at 10 μM) turned out to be 12%.
`O=C(O)CC[C@H](NC(=O)N[C@@H](CCCCNc1nc(-c2ccc(F)cc2)cs1)C(=O)O)C(=O)O` [P232, (S)-2-(3-((S)-1-Carboxy-5-(4-(4-fluorophenyl)thiazol-2-ylamino)pentyl)ureido)pentanedioic Acid]: the “PSMA Blkg % (1.0 μM)” value came out at 96%.
On the same count and under the same terms, the same measure for `CCN(CC)C(=O)c1cc(C(=O)NCCCC[C@H](NC(=O)N[C@@H](CCC(=O)O)C(=O)O)C(=O)O)cc(-n2cc(CCCF)nn2)c1` [P260, (S)-2-(3-((S)-1-Carboxy-5-(3-(diethylcarbamoyl)-5-(4-(3-fluoropropyl)-1H-1,2,3-triazol-1-yl)benzamido)pentyl)ureido)pentanedioic Acid]: 81%.
`CN(C(=O)N[C@@H](CCC(=O)O)C(=O)O)[C@@H](CCCCNC(=O)Cn1cc(CCCF)nn1)C(=O)O` [P032, (S)-2-(3-((S)-1-Carboxy-5-(2-(4-(3-fluoropropyl)-1H-1,2,3-triazol-1-yl)acetamido)pentyl)-3-methylureido)pentanedioic Acid]: under “compound at 10 μM”, the “PSMA Blkg % (10 μM)” value is listed as 50%.
For `O=C(O)CC[C@@H](C(=O)O)N1C(=O)CC(=O)NC1=O` [P126], the “PSMA Blkg % (10 μM)” value (compound at 10 μM) amounted to 12%.
For `O=C(O)CC[C@H](NC(=O)N[C@@H](Cc1ccc(NC(=O)c2cc(C(=O)O)cc(-n3cc(CCCF)nn3)c2)cc1)C(=O)O)C(=O)O` [P253, (S)-2-(3-((S)-1-Carboxy-2-(4-(3-carboxy-5-(4-(3-fluoropropyl)-1H-1,2,3-triazol-1-yl)benzamido)phenyl)ethyl)ureido)pentanedioic Acid], the affinity, expressed as Ki, was 0.2 nM and the “PSMA Blkg % (1.0 μM)” value is on record as 96%.
For `O=C(O)CC[C@H](NC(=O)N[C@@H](COCc1ccccc1)C(=O)O)C(=O)O` [P204, (S)-2-(3-((S)-2-(Benzyloxy)-1-carboxyethyl)ureido)pentanedioic Acid], the affinity, expressed as Ki, was 6.9 nM. Also, the “PSMA Blkg % (10 μM)” value (10 μM) turned out to be 98%.
For `CN(CCCC[C@H](NC(=O)N[C@@H](CCC(=O)O)C(=O)O)C(=O)O)C(=O)OCc1ccccc1` [P083, (9S,13S)-4-Methyl-3,11-dioxo-1-phenyl-2-oxa-4,10,12-triazapentadecane-9,13,15-tricarboxylic Acid], the “PSMA Blkg % (10 μM)” value (compound at 10 μM) was 100%.
For `COc1ccc(CCNC(=O)N(O)CC(=O)N[C@@H](CCC(=O)O)C(=O)O)cc1OC` [P149, (S)-2-(2-(3-(3,4-Dimethoxyphenethyl)-1-hydroxyureido)acetamido)pentanedioic Acid], the “PSMA Blkg % (10 μM)” value (compound at 10 μM) was 0%.
On to `O=C(O)CC[C@H](NC(=O)N[C@@H](CCc1nc(-c2ccc([N+](=O)[O-])cc2)co1)C(=O)O)C(=O)O` [P279, (S)-2-(3-((S)-1-Carboxy-3-(4-(4-nitrophenyl)oxazol-2-yl)propyl)ureido)pentanedioic Acid], for which the Ki was found to be 1.6 nM.
Take `O=C(O)CCN(CC(=O)O)NC(=O)NC(CSCc1ccccc1)C(=O)O` (stereo not drawn) [P017, 3-(Benzylthio)-2-(2-(2-carboxyethyl)-2-(carboxymethyl)-hydrazinecarboxamido)propanoic Acid]: under “compound at 10 μM”, the “PSMA Blkg % (10 μM)” value was found to be 0%.
The same measure, in the same setting: for `Nc1ccc(CCCC(=O)N(O)CC(=O)N[C@@H](CCC(=O)O)C(=O)O)cc1` [P134, (S)-2-(2-(4-(4-Aminophenyl)-N-hydroxybutanamido)acetamido)pentanedioic Acid] the value was 37%.
Regarding “(S)-2-(3-((S)-1-Carboxy-5-(4-(2-fluoroethoxy)benzamido)pentyl)ureido)pentanedioic Acid [P160]”, the Ki is 219 nM. Further, for the setting “compound at 10 μM”, the “PSMA Blkg % (10 μM)” value is listed as 88%.
Consider `O=C(O)CC[C@H](NC(=O)N[C@@H](Cc1ccc(NC(=O)CCCCCn2cc(CCCF)nn2)cc1)C(=O)O)C(=O)O` [P067, (S)-2-(3-((S)-1-Carboxy-2-(4-(6-(4-(3-fluoropropyl)-1H-1,2,3-triazol-1-yl)hexamido)phenyl)ethyl)ureido)pentanedioic Acid], for which the “PSMA Blkg % (10 μM)” value (compound at 10 μM) is listed as 52%.
For the molecule `O=C(O)CC[C@H](NC(=O)C[C@@H](NC(=O)CCCCCNC(=O)OCc1ccccc1)C(=O)O)C(=O)O` [P209, (12R,16S)-3,10,14-Trioxo-1-phenyl-2-oxa-4,11,15-triazaoctadecane-12,16,18-tricarboxylic Acid], the “PSMA Blkg % (10 μM)” value (10 μM) amounted to 44%.
On to `O=C(O)CCCC(=O)NC(CCC(=O)O)C(=O)O` (stereo not drawn) [P030, S)-2-(4-Carboxybutanamido)pentanedioic Acid], for which the “PSMA Blkg % (10 μM)” value (compound at 10 μM) is given as 2%.
